The test system of data set [1] is peripheral blood lymphocyte count. The data set can be described thus: Peripheral blood lymphocyte count in healthy volunteers. It counts as in vivo, human. On the procedure:
In healthy volunteers, PONVORY induces a dose-dependent reduction of the peripheral blood lymphocyte count from a single dose of 5 mg onwards, with the greatest reduction observed 6 hours post-dose, caused by reversible sequestration of lymphocytes in lymphoid tissues. After 7 daily doses of 20 mg, the greatest decrease in absolute mean lymphocyte count was to 26% of baseline (650 cells/μL), observed 6 hours after administration. Peripheral blood B cells [CD19+] and T cells [CD3+], T-helper [CD3+CD4+], and T-cytotoxic [CD3+CD8+] cell subsets are all affected, while NK cells are not. T-helper cells were more sensitive to the effects of ponesimod than T-cytotoxic cells.

Data set [2] relates to P-gp, BCRP, OATP1B1, or OATP1B3 transporters. In words: Transporter substrate assessment. The data set is classed as in vitro ADME. The source says: Drugs that are inhibitors of these transporters are unlikely to impact the PK of ponesimod.
Data set [3] is described as follows: Coadministration with oral hormonal contraceptive. The data set is classed as in vivo, human. The note with it: 1 mg norethisterone/norethindrone and 35 μg ethinyl estradiol. From the text:
Therefore, concomitant use of ponesimod is not expected to decrease the efficacy of hormonal contraceptives. No interaction studies have been performed with oral contraceptives containing other progestogens: however, an effect of ponesimod on their exposure is not expected.

In a further data set the test system is mice. In words: Carcinogenesis, mice, oral up to 2 years. The data set is classed as in vivo, mouse. On the procedure:
Plasma exposure (AUC) at to lowest dose tested in males (50 mg/kg/day) was approximately 5 times that in humans at the recommended human dose (RHD) of 20 mg.

A further data set deals with rats. The data set can be described thus: Carcinogenesis, rats, oral up to 2 years. The data set is classed as in vivo, rat. On the procedure:
Plasma exposure at the highest dose tested in males (30 mg/kg/day) was approximately 4 times that in humans at the recommended human dose (RHD) of 20 mg.

The values that follow come from US12419869B2, “Methods of treating multiple sclerosis” (Vanda Pharmaceuticals Inc., priority 2021, dated 2025).

Regarding `CCC/N=C1\S/C(=C\c2ccc(OC[C@H](O)CO)c(Cl)c2)C(=O)N1c1ccccc1C` [Ponesimod, (R)-5-[3-chloro-4-(2,3-dihydroxy-propoxy)-benz[Z]ylidene]-2-([Z]-propylimino)-3-o-tolyl-thiazolidin-4-one], the “Absolute mean lymphocyte count at greatest decrease” value in data set [1] (after 7 daily doses of 20 mg) was determined as 650 cells/μL. Further, in data set [1] (after 7 daily doses of 20 mg, 6 hours after administration), the “Greatest decrease in absolute mean lymphocyte count, % of baseline” value is given as 26 % of baseline. In addition, the “Time of greatest reduction of peripheral blood lymphocyte count” value in data set [1] (post-dose, healthy volunteers) came to 6 h. In addition, the “Substrate of P-gp, BCRP, OATP1B1, or OATP1B3 transporters” value in data set [2] is “not a substrate”. Further, the “Pharmacokinetic interaction with oral hormonal contraceptive” value in data set [3] is “no clinically relevant pharmacokinetic interaction”. Moreover, the “Carcinogenicity findings in mice” value with mice (males all doses (50, 150, 400 mg/kg/day), females highest dose (300 mg/kg/day)) is “incidences in hemangiosarcoma and combined hemangioma and hemangiosarcoma”. Moreover, the “Plasma exposure (AUC) at lowest dose in male mice (50 mg/kg/day) relative to humans at RHD” value with mice (mouse, in vivo) is recorded as “approximately 5 times”. The “Plasma exposure at highest dose in male rats (30 mg/kg/day) relative to humans at RHD” value in the data set with rats (rat, in vivo) is recorded as “approximately 4 times”. Besides, in the data set with rats (up to 30 (males) / 100 (females) mg/kg/day), the “Carcinogenicity findings in rats” value was “did not result in an increase in tumors”.
